Assay results reported in PubChem BioAssay (NCI).
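Cultured in 96-well plates, cells were exposed to test compound for 48 hours across five concentrations. TGI denotes the concentration required for complete inhibition of growth.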

Columns and labels:
Assay in all cases: DTP human tumour cell line panel, 48 h
[1] = system: TK-10 renal
[2] = system: UACC-62 melanoma
[3] = system: SK-MEL-5 melanoma
[4] = system: NCI/ADR-RES ovarian
[5] = system: K-562 leukemia
[6] = system: HOP-92 NSCLC
[7] = system: SF-268 CNS
[8] = system: SK-MEL-28 melanoma
[9] = system: SF-539 CNS
[10] = system: OVCAR-8 ovarian
[11] = system: HL-60(TB) leukemia
[12] = system: MDA-N
[13] = system: U251 CNS
[14] = system: SNB-75 CNS
[15] = system: UACC-257 melanoma
[16] = system: RPMI-8226 leukemia
[17] = system: SK-OV-3 ovarian
[18] = system: UO-31 renal
[19] = system: NCI-H23 lung
[20] = system: 786-0 renal
[21] = system: SF-295 CNS
[22] = system: HCT-15 colon
[23] = system: A549 NSCLC
[24] = system: SN12C renal
[25] = system: SW-620 colon
[26] = system: HOP-62 NSCLC
[27] = system: OVCAR-4 ovarian
[28] = system: OVCAR-3 ovarian
[29] = system: LOX IMVI melanoma
[30] = system: CAKI-1 renal
[31] = system: A498 renal
[32] = system: CCRF-CEM leukemia
[33] = system: MDA-MB-435
[34] = system: COLO 205 colon
[35] = system: EKVX NSCLC
[36] = system: MOLT-4 leukemia
[37] = system: HCT-116 colon
[38] = system: MDA-MB-231 breast
[39] = system: PC-3 prostate
[40] = system: KM12 colon
[41] = system: NCI-H460 lung
[42] = system: M14 melanoma
[43] = system: DU-145 prostate
[44] = system: ACHN renal
[45] = system: OVCAR-5 ovarian
[46] = system: T-47D breast
[47] = system: SNB-19 CNS
[48] = system: NCI-H226 lung
[49] = system: HCC-2998 colon
[50] = system: MCF7 breast
[51] = system: RXF 393 renal
[52] = system: HT29 colon
[53] = system: SR leukemia
[54] = system: NCI-H522 lung
[55] = system: SK-MEL-2 melanoma
[56] = system: BT-549 breast
[57] = system: IGROV1 ovarian
[58] = system: MALME-3M melanoma

Measured: TGI

Cc1nn(-c2ccccc2)c2nc3c(c(C)nn3-c3ccccc3)c(-c3ccc(C(F)(F)F)cc3)c12
> 100 µM: [1] | [2] | [3] | [4] | [5] | [6] | [7] | [8] | [9] | [10] | [11] | [12] | [13] | [15] | [16] | [17] | [18] | [19] | [20] | [21] | [22] | [23] | [24] | [25] | [26] | [27] | [28] | [29] | [30] | [31] | [32] | [33] | [34] | [35] | [36] | [37] | [38] | [39] | [40] | [41] | [42] | [43] | [44] | [45] | [46] | [47] | [48] | [49] | [50] | [51] | [52]
92.6 µM: [14]

CCc1nnc(CC)n1N1C(=O)CCC1=O
> 100 µM: [53] | [1] | [2] | [3] | [54] | [4] | [5] | [6] | [7] | [8] | [9] | [10] | [12] | [13] | [14] | [15] | [16] | [17] | [18] | [19] | [20] | [21] | [22] | [23] | [24] | [25] | [26] | [27] | [28] | [29] | [32] | [33] | [34] | [35] | [36] | [37] | [55] | [38] | [39] | [40] | [42] | [43] | [44] | [45] | [56] | [57] | [47] | [49] | [50] | [51] | [52]

COc1ccn(CC(=O)c2cc3ccccc3[nH]2)c(=O)n1
> 100 µM: [58] | [1] | [2] | [3] | [54] | [4] | [5] | [6] | [7] | [8] | [9] | [10] | [11] | [12] | [13] | [14] | [15] | [16] | [17] | [18] | [19] | [20] | [21] | [22] | [23] | [24] | [25] | [26] | [27] | [28] | [29] | [30] | [31] | [32] | [33] | [34] | [35] | [36] | [37] | [55] | [38] | [39] | [40] | [41] | [42] | [43] | [44] | [45] | [56] | [57] | [46] | [47] | [48] | [49] | [50] | [51] | [52]

NC(Cc1ccc(O)c(O)c1)P(=O)(O)O (stereo unspecified)
43.2 µM: [25]
95.7 µM: [46]
68.6 µM: [32]
> 100 µM: [58] | [53] | [1] | [2] | [3] | [4] | [6] | [7] | [8] | [9] | [10] | [12] | [13] | [14] | [15] | [16] | [18] | [19] | [20] | [21] | [22] | [23] | [24] | [27] | [28] | [30] | [31] | [33] | [36] | [37] | [55] | [38] | [39] | [40] | [41] | [42] | [43] | [44] | [45] | [56] | [57] | [47] | [48] | [49] | [51] | [52]
42 µM: [5]
20.1 µM: [54]
45.7 µM: [11]

CCCCCCCCCCCCCCCCCCOP1(=O)OCCO1
75.3 µM: [11]
75.4 µM: [51]
> 100 µM: [58] | [1] | [2] | [3] | [54] | [4] | [5] | [6] | [8] | [9] | [10] | [12] | [13] | [14] | [15] | [16] | [17] | [18] | [19] | [20] | [21] | [22] | [23] | [24] | [25] | [26] | [27] | [28] | [29] | [30] | [31] | [32] | [33] | [34] | [35] | [36] | [37] | [55] | [38] | [40] | [42] | [43] | [44] | [45] | [57] | [46] | [47] | [48] | [49] | [50] | [52]
83.9 µM: [39]
